From paper PMC8650577
*1 amine or outer side, *2 acyl side, *3 side chain or, on linkers, in order; H or OH if unused. Where a SMILES comes first, the peptide text is derived from it. Bridges are numbered along the chain shown (N, C = ends). [ ]: non-standard residue; d: D form. Maleimide(3,4-diyl) = O=C1NC(=O)C([*:2])=C1[*:1]; hCys = N[C@@H](CCS)C(=O)O

Legend:
circular dichroism = settings: 10 mM sodium phosphate; pH 7.2; 25 °C; 250 uM
[1] = Two-component bis-thiol stapling with 2,3-dibromomaleimide (200 uM), TCEP (100 uM); thioether formation followed at 395 nm; settings: the molecule shown is the open-chain precursor, 50 mM aq. phosphate buffer pH 6.0, 0.1 mM, 20.0 °C, 1.0 h
[2] = Two-component i,i+4 bis-thiol stapling: TCEP (1.1 eq) reduction for 1 h, then 2,3-dibromomaleimide (1.1 eq) for 1 h; two S-C(maleimide) thioether bonds formed; settings: the molecule shown is the open-chain precursor, MeCN/50 mM aq. ammonium acetate pH 7.4 (1:1), 3.3 mM, 14 steps

CC(=O)N[C@@H]1CSC2=C(SC[C@@H](C(N)=O)NC(=O)[C@H](C)NC(=O)[C@H](C)NC(=O)[C@H](C)NC1=O)C(=O)NC2=O
helicity (circular dichroism): 28 rel %

CC(=O)N[C@@H]1CSC2=C(SC[C@H](C(N)=O)NC(=O)[C@H](C)NC(=O)[C@H](C)NC(=O)[C@H](C)NC1=O)C(=O)NC2=O
helicity (circular dichroism): 13 rel %

CC(=O)N[C@H]1CSC2=C(SC[C@@H](C(N)=O)NC(=O)[C@H](C)NC(=O)[C@H](C)NC(=O)[C@H](C)NC1=O)C(=O)NC2=O
helicity (circular dichroism): 25 rel %

CC(=O)N[C@H]1CSC2=C(SC[C@H](C(N)=O)NC(=O)[C@H](C)NC(=O)[C@H](C)NC(=O)[C@H](C)NC1=O)C(=O)NC2=O
helicity (circular dichroism): 17 rel %

CC(=O)N[C@H]1CSC2=C(SCC[C@@H](C(N)=O)NC(=O)[C@H](C)NC(=O)[C@H](C)NC(=O)[C@H](C)NC1=O)C(=O)NC2=O (Ac-CAAA[hCys]-NH2; linker 1-5 via Maleimide(3,4-diyl))
helicity (circular dichroism): 48 rel %

CC(=O)N[C@H]1CCSC2=C(SC[C@@H](C(N)=O)NC(=O)[C@H](C)NC(=O)[C@H](C)NC(=O)[C@H](C)NC1=O)C(=O)NC2=O (Ac-[hCys]AAAC-NH2; linker 1-5 via Maleimide(3,4-diyl))
helicity (circular dichroism): 11 rel %

CC(=O)N[C@H]1CCSC2=C(SCC[C@@H](C(N)=O)NC(=O)[C@H](C)NC(=O)[C@H](C)NC(=O)[C@H](C)NC1=O)C(=O)NC2=O (Ac-[hCys]AAA[hCys]-NH2; linker 1-5 via Maleimide(3,4-diyl))
helicity (circular dichroism): 13 rel %

CC(=O)N[C@@H](CSC1=C(Br)C(=O)NC1=O)C(=O)N[C@@H](C)C(=O)N[C@@H](C)C(=O)N[C@@H](C)C(=O)N[C@@H](CS)C(N)=O [Ac-Cys-Ala-Ala-Ala-Cys-NH2]
ring closure, halflife ([1]; 19-membered ring): 8 min | ring closure, overall yield ([2]; 19-membered ring): 21%

CC(=O)N[C@@H](CSC1=C(Br)C(=O)NC1=O)C(=O)N[C@@H](C)C(=O)N[C@@H](C)C(=O)N[C@@H](C)C(=O)N[C@H](CS)C(N)=O [Ac-Cys-Ala-Ala-Ala-D-Cys-NH2]
ring closure, halflife ([1]; 19-membered ring): 8 min | ring closure, overall yield ([2]; 19-membered ring): 21%

CC(=O)N[C@@H](CSC1=C(Br)C(=O)NC1=O)C(=O)N[C@@H](C)C(=O)N[C@@H](C)C(=O)N[C@@H](C)C(=O)N[C@@H](CCS)C(N)=O [Ac-Cys-Ala-Ala-Ala-hCys-NH2]
ring closure, halflife ([1]; 20-membered ring): 13 min | ring closure, overall yield ([2]; 20-membered ring): 4%

CC(=O)N[C@H](CSC1=C(Br)C(=O)NC1=O)C(=O)N[C@@H](C)C(=O)N[C@@H](C)C(=O)N[C@@H](C)C(=O)N[C@@H](CS)C(N)=O [Ac-D-Cys-Ala-Ala-Ala-Cys-NH2]
ring closure, halflife ([1]; 19-membered ring): 8 min | ring closure, overall yield ([2]; 19-membered ring): 7%

CC(=O)N[C@H](CSC1=C(Br)C(=O)NC1=O)C(=O)N[C@@H](C)C(=O)N[C@@H](C)C(=O)N[C@@H](C)C(=O)N[C@H](CS)C(N)=O [Ac-D-Cys-Ala-Ala-Ala-D-Cys-NH2]
ring closure, halflife ([1]; 19-membered ring): 10 min | ring closure, overall yield ([2]; 19-membered ring): 11%

CC(=O)N[C@@H](CCSC1=C(Br)C(=O)NC1=O)C(=O)N[C@@H](C)C(=O)N[C@@H](C)C(=O)N[C@@H](C)C(=O)N[C@@H](CS)C(N)=O [Ac-hCys-Ala-Ala-Ala-Cys-NH2]
ring closure, halflife ([1]; 20-membered ring): 11 min | ring closure, overall yield ([2]; 20-membered ring): 18%

CC(=O)N[C@@H](CCSC1=C(Br)C(=O)NC1=O)C(=O)N[C@@H](C)C(=O)N[C@@H](C)C(=O)N[C@@H](C)C(=O)N[C@@H](CCS)C(N)=O [Ac-hCys-Ala-Ala-Ala-hCys-NH2]
ring closure, halflife ([1]; 21-membered ring): 9 min | ring closure, overall yield ([2]; 21-membered ring): 17%
